According to US5194605A, “Cyclic renin inhibitors containing 2-substituted (3S,4S)-4-amino-5-cyclohexyl-3-hydroxy pentanoic acid, 2-substituted (3S,4S)-5-cyclohexyl-3,4-di-hydroxy pentanoic acid or 2-substituted (4S,5S)-5-amino-6-cyclohexyl-4-hydroxyhexanoic acid or its analogs” (Merck & Co., Inc., priority 1991, dated 1993):
Where two headings read alike, the source gives them in different places. Square brackets hold non-standard residues; d marks the D form. Peptide text beside a SMILES is read from it. * marks the point of attachment. Sta = CC(C)C[C@H](N)[C@@H](O)CC(=O)O; Isovaleryl = CC(C)CC(=O)*

Assays:
[1] = tested on: conscious sodium-deficient Rhesus monkeys; assay: intravenous evaluation of renin inhibitors in conscious sodium-deficient Rhesus monkeys (blood pressure lowering); assay type: in vivo, Rhesus monkey; conditions: i.v. bolus, mean arterial pressure
From the text: The following methods were used for in vivo evaluation of the renin inhibitors of Formula I: Intravenous evaluation of renin inhibitors in concious sodium-deficient Rhesus monkeys: Rhesus monkeys, male and female, weighing 2.6-4.5 Kg, were surgically prepared with chronic arterial and venous catheters and vascular access ports for direct monitoring of mean arterial pressure (MAP) and heart rate (HR). The animals were maintained on a low sodium diet (1.2 mmol Na/day) plus friut for a week, and administered LASIX (furosemide) at 2.5 mg/Kg, intramuscularly the evening prior to the experiment. […] The inhibitors were administered by bolus injection using 0.5% acetic acid-5% dextrose in water as the vehicle (0.4 ml/Kg), and MAP and HR were measured. […] PRA was determined as described above. […] A projected ED50 dose for each inhibitor was calculated using the following furmula: ED50 (Test Inhibitor, umoles/Kg)=ED50 (SCRIP)×[IC50 (Test Inhibitor)/IC50 (SCRIP)], where the IC50 values were determined against human plasma renin. […] Percent inhibition of monkey PRA, changes in MAP and HR were calculated and plotted against time. […] The inhibitors were administered orally as a solution (2.5 ml/Kg) in 0.1M citric acid, and MAP and HR were measured over time. […] Percent inhibition of primate PRA and peak changes in MAP and HR were calculated. […]

[2] = amide bond, DPPA, Et3N, DMF, 1.75 mM, 4.0 °C

In the case of `CC(C)CC(=O)N[C@@H](Cc1cnc[nH]1)C(=O)N1CCC[C@H]1C(=O)N[C@@H](Cc1ccccc1)C(=O)N[C@@H](Cc1cnc[nH]1)C(=O)N[C@@H](CC(C)C)[C@@H](O)CC(=O)N[C@@H](CC(C)C)C(=O)N[C@@H](Cc1ccccc1)C(N)=O` [SCRIP, Iva-His-Pro-Phe-His-Sta-Leu-Phe-NH2] (Isovaleryl-HPFH[Sta]LF-NH2), the “ED50 (i.v. dose required to lower blood pressure by 50% of the maximal response)” value [1] is reported as 0.039 µmol/kg.
For `COC(=O)[C@H]1CCCCNC(=O)CC[C@H](NC(=O)OC(C)(C)C)C(=O)N[C@@H](CC2CCCCC2)[C@H]1O`, the ring closure, yield of all isomers ([2]; from COC(=O)[C@@H](CCCCN)[C@H](O)[C@H](CC1CCCCC1)NC(=O)[C@H](CCC(=O)O)NC(=O)OC(C)(C)C, 120.3 h) was 62%.
With `CC[C@H](C)CNC(=O)[C@H]1CCCCNC(=O)CC[C@H](NC(=O)OC(C)(C)C)C(=O)N[C@@H](CC2CCCCC2)[C@H]1O` the ring closure, yield of all isomers ([2]; from CC[C@H](C)CNC(=O)[C@@H](CCCCN)[C@H](O)[C@H](CC1CCCCC1)NC(=O)[C@H](CCC(=O)O)NC(=O)OC(C)(C)C, 120.3 h, 2 steps) was 62%.
`CC[C@H](C)CNC(=O)[C@H]1CCCNC(=O)CC[C@H](NC(=O)OC(C)(C)C)C(=O)N[C@@H](CC2CCCCC2)[C@H]1O` showed a ring closure, yield of all isomers ([2]; from CC[C@H](C)CNC(=O)[C@@H](CCCN)[C@H](O)[C@H](CC1CCCCC1)NC(=O)[C@H](CCC(=O)O)NC(=O)OC(C)(C)C, 145.0 h) of 18%.
